Data as given in ChEMBL document CHEMBL1128468, “Amino acid side chain descriptors for quantitative structure-activity relationship studies of peptide analogues” (J Med Chem, 1995).
Peptide text beside a SMILES is read from it.

molecular target: Angiotensin-converting enzyme (Homo sapiens, UniProt P12821); assay: Biological activity was measured against Angiotensin I converting enzyme; conditions: read-out: Log 1/IC50 (converted)
Sequence (P12821 whole entry): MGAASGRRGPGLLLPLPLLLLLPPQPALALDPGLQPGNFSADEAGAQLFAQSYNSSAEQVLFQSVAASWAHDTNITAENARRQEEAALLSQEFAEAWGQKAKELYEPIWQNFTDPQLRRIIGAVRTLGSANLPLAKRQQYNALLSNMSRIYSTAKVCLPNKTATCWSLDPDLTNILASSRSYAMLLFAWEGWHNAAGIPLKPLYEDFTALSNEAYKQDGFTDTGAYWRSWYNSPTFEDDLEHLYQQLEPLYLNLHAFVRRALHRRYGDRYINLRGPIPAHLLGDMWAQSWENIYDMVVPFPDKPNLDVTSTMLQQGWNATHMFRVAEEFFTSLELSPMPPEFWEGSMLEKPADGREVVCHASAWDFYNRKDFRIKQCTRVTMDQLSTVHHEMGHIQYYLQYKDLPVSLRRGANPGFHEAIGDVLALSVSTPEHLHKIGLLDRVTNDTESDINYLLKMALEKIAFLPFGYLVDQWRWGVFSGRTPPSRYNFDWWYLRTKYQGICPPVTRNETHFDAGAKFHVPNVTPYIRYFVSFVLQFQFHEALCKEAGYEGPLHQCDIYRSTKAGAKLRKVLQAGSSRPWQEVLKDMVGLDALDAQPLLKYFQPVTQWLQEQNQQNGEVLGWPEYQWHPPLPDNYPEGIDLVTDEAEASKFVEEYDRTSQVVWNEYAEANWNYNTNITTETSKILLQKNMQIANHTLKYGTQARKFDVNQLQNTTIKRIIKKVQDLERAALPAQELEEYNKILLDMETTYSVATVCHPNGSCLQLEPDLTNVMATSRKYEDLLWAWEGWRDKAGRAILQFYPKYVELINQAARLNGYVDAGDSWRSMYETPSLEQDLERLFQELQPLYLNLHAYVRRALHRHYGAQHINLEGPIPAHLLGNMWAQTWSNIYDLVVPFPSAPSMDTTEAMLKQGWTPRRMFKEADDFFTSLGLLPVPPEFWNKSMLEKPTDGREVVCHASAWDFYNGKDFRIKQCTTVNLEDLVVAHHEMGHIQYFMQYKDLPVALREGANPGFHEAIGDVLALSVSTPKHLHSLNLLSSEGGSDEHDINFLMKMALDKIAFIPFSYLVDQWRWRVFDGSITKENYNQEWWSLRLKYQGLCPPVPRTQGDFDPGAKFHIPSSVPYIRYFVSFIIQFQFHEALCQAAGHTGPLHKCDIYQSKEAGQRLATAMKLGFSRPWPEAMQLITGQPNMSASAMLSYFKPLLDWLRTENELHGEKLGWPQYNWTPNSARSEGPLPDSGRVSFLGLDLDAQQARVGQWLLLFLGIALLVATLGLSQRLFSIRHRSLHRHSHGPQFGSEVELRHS

**Q.** `N=C(N)NCCC[C@H](N)C(=O)N[C@@H](Cc1ccccc1)C(=O)O` was tested. Which IC50 did it give?
**A.** 0.229 mM

**Q.** For `CC(C)[C@H](N)C(=O)NCC(=O)O` [VAL-GLY] (H-Val-Gly-OH), which IC50 is on record?
**A.** 1.1 mM

**Q.** Which IC50 does the source give for `NCC(=O)N[C@@H](CCC(=O)O)C(=O)O` (H-Gly-Glu-OH) here?
**A.** 5.37 mM

**Q.** With `NCCCC[C@H](N)C(=O)NCC(=O)O` (H-Lys-Gly-OH) as the compound, how does the IC50 read?
**A.** 3.24 mM

**Q.** With `N[C@@H](Cc1c[nH]c2ccccc12)C(=O)NCC(=O)O` (H-Trp-Gly-OH) as the compound, how does the IC50 read?
**A.** 5.89 mM

**Q.** For `NC(=O)CC[C@H](N)C(=O)NCC(=O)O` (H-Gln-Gly-OH), which IC50 is on record?
**A.** 7.41 mM

**Q.** How did the IC50 turn out when `CC[C@H](C)[C@H](N)C(=O)N[C@@H](Cc1ccccc1)C(=O)O` (H-Ile-Phe-OH) was run?
**A.** 0.933 mM

**Q.** For `N=C(N)NCCC[C@H](NC(=O)[C@@H](N)Cc1ccccc1)C(=O)O` (H-Phe-Arg-OH), which IC50 is on record?
**A.** 0.912 mM

**Q.** For `N[C@@H](CC(=O)O)C(=O)NCC(=O)O` (H-Asp-Gly-OH), which IC50 is on record?
**A.** 14.1 mM

**Q.** `NCC(=O)NCC(=O)O` (H-Gly-Gly-OH) was tested. Which IC50 did it give?
**A.** 7.24 mM

**Q.** `C[C@H](NC(=O)[C@@H](N)CCC(=O)O)C(=O)O` (H-Glu-Ala-OH) was tested. Which IC50 did it give?
**A.** 10 mM

**Q.** `CC(C)C[C@H](N)C(=O)N[C@@H](C)C(=O)O` [LEU-ALA] (H-Leu-Ala-OH) was tested. Which IC50 did it give?
**A.** 0.309 mM

**Q.** With `CC[C@H](C)[C@H](N)C(=O)N1CCCC1C(=O)O` (single isomer, unassigned) as the compound, how does the IC50 read?
**A.** 0.129 mM

**Q.** Which IC50 does the source give for `N[C@@H](Cc1c[nH]cn1)C(=O)NCC(=O)O` (H-His-Gly-OH) here?
**A.** 6.31 mM

**Q.** With `CC(C)C[C@H](N)C(=O)NCC(=O)O` (H-Leu-Gly-OH) as the compound, how does the IC50 read?
**A.** 8.71 mM

**Q.** For `CC(C)C[C@H](NC(=O)[C@@H](N)Cc1c[nH]cn1)C(=O)O` (H-His-Leu-OH), which IC50 is on record?
**A.** 3.24 mM

**Q.** Which IC50 does the source give for `NCC(=O)N[C@@H](Cc1c[nH]cn1)C(=O)O` (H-Gly-His-OH) here?
**A.** 3.09 mM

**Q.** `CC(C)[C@H](N)C(=O)N[C@@H](Cc1ccc(O)cc1)C(=O)O` (H-Val-Tyr-OH) was tested. Which IC50 did it give?
**A.** 0.0219 mM

**Q.** `NCC(=O)N[C@@H](CO)C(=O)O` (H-Gly-Ser-OH) was tested. Which IC50 did it give?
**A.** 3.8 mM

**Q.** Which IC50 does the source give for `C[C@H](NC(=O)[C@@H](N)CCCCN)C(=O)O` (H-Lys-Ala-OH) here?
**A.** 0.38 mM

**Q.** `NC(N)=NCCC[C@H](N)C(=O)N[C@@H](Cc1c[nH]c2ccccc12)C(=O)O` (H-Arg-Trp-OH) was tested. Which IC50 did it give?
**A.** 0.0158 mM

**Q.** How did the IC50 turn out when `NCC(=O)N[C@@H](CC(=O)O)C(=O)O` (H-Gly-Asp-OH) was run?
**A.** 9.12 mM

**Q.** How did the IC50 turn out when `C[C@H](NC(=O)[C@@H](N)CCCN=C(N)N)C(=O)O` (H-Arg-Ala-OH) was run?
**A.** 0.457 mM

**Q.** `CC[C@H](C)[C@H](NC(=O)CN)C(=O)O` (H-Gly-Ile-OH) was tested. Which IC50 did it give?
**A.** 1.2 mM

**Q.** `C[C@H](NC(=O)[C@@H](N)Cc1ccc(O)cc1)C(=O)O` was tested. Which IC50 did it give?
**A.** 0.457 mM

**Q.** How did the IC50 turn out when `NCCCC[C@H](NC(=O)CN)C(=O)O` (H-Gly-Lys-OH) was run?
**A.** 5.37 mM

**Q.** For `NCC(=O)N[C@@H](Cc1ccc(O)cc1)C(=O)O` (H-Gly-Tyr-OH), which IC50 is on record?
**A.** 0.209 mM

**Q.** How did the IC50 turn out when `CC[C@H](C)[C@H](N)C(=O)NCC(=O)O` (H-Ile-Gly-OH) was run?
**A.** 1.2 mM

**Q.** With `N[C@@H](CO)C(=O)NCC(=O)O` (H-Ser-Gly-OH) as the compound, how does the IC50 read?
**A.** 8.51 mM

**Q.** With `C[C@H](O)[C@H](N)C(=O)NCC(=O)O` as the compound, how does the IC50 read?
**A.** 10 mM

**Q.** Which IC50 does the source give for `C[C@H](N)C(=O)N[C@@H](C)C(=O)O` (H-Ala-Ala-OH) here?
**A.** 0.617 mM

**Q.** With `CC[C@H](C)[C@H](N)C(=O)N[C@@H](Cc1c[nH]c2ccccc12)C(=O)O` as the compound, how does the IC50 read?
**A.** 0.002 mM

**Q.** Which IC50 does the source give for `N[C@@H](CCC(=O)O)C(=O)NCC(=O)O` (H-Glu-Gly-OH) here?
**A.** 10 mM

**Q.** For `C[C@H](N)C(=O)N[C@@H](Cc1c[nH]c2ccccc12)C(=O)O` (H-Ala-Trp-OH), which IC50 is on record?
**A.** 0.01 mM

**Q.** `C[C@H](NC(=O)CN)C(=O)O` (H-Gly-Ala-OH) was tested. Which IC50 did it give?
**A.** 2 mM

**Q.** For `C[C@@H](O)[C@H](NC(=O)CN)C(=O)O` (H-Gly-Thr-OH), which IC50 is on record?
**A.** 5.75 mM

**Q.** `C[C@H](N)C(=O)N[C@@H](Cc1ccc(O)cc1)C(=O)O` (H-Ala-Tyr-OH) was tested. Which IC50 did it give?
**A.** 0.0871 mM

**Q.** Which IC50 does the source give for `NCC(=O)N[C@@H](Cc1c[nH]c2ccccc12)C(=O)O` (H-Gly-Trp-OH) here?
**A.** 0.0302 mM

**Q.** How did the IC50 turn out when `NCC(=O)N[C@@H](CCC(N)=O)C(=O)O` (H-Gly-Gln-OH) was run?
**A.** 7.08 mM

**Q.** With `C[C@H](NC(=O)[C@@H](N)CC(=O)O)C(=O)O` (H-Asp-Ala-OH) as the compound, how does the IC50 read?
**A.** 3.8 mM

**Q.** Which IC50 does the source give for `N=C(N)NCCC[C@H](NC(=O)CN)C(=O)O` (H-Gly-Arg-OH) here?
**A.** 3.24 mM

**Q.** For `CSCC[C@H](N)C(=O)NCC(=O)O` (H-Met-Gly-OH), which IC50 is on record?
**A.** 4.79 mM
